One test has as its target T1, Aurora B (Homo sapiens, UniProt Q96GD4).
T1 construct: purchased Invitrogen PV3970
Put plainly: In vitro Aurora B kinase assay (Invitrogen Z'-lyte kinase assay kit, Ser/Thr 1 peptide). To be noted: 64 µM ATP. The test is classed as biochemical. The method, then:
The IC50 for the different compounds was determined with Invitrogen Z'-Iyte kinase assay kit Ser/Thr 1 peptide PV3174 following the manufacturer's instructions. […] This amount was then used in subsequent assay steps.
Compounds were prepared in 384-well plates (Greiner 384-well PP 781280) at a highest concentration of 400 µM (in 4% DMSO) and then serially diluted in 2-fold steps by hand, keeping the DMSO percentage constant. 1.25 µl of compound solution was subsequently transferred 1:1 to a 384-well assay plate (Greiner 384-well ProxiPlate Plus F 6008260) for screening at a highest concentration in the final assay of 100 µM (in 1% DMSO).
In the first step, 2.5 µl of a solution containing 8 nM Aurora A (batch S74, prepared in-house at EMBL) or 40 nM Aurora B (Invitrogen PV3970) and 4 µM Ser/Thr peptide 1 (Invitrogen PV3174) was added to each well, followed by 1.25 µl of the respective ATP solution (40 µM for Aurora A, 256 µM for Aurora B). […] In the final step, the reaction in each well was stopped by the addition of 2.5 µl Stop reagent, followed by a brief centrifugation step and immediate readout (PerkinElmer EnVision HTS; ex. 405 nm, coumarin em. 450 nm, fluorescein em. 535 nm).
Percentage phosphorylation was calculated using 0% and 100% phosphorylation controls. […]

Another test deals with FGFR. Kind of test: RTK-Assay (ELISA, chemiluminescence). It is filed as biochemical. The method, then:
To determine the IC50 of receptor-tyrosine-kinase an assay based on the ELISA-principle using kinases from Biomol (N-terminally fused to GST), POD-coupled antibody from Calbiochem (PY20) and BM chemiluminescence ELISA substrate from Roche was followed.
In short, a white 96 wells microplate was incubated overnight with 100 µl/well of the substrate solution (poly-Glu-Tyr diluted with PBS to 100 µg/ml) at 4 °C. The solution was removed and the plate was washed twice for 2 min with PBS-T. Afterwards the kinase solution (50 µl/well)( KDR (VEGFR2), 5 ng; Flt4 (VEGFR3), 20 ng; EGFR, 5 ng; IGFR, 15 ng; FGFR, 10 ng and Tie2, 20 ng) and the inhibitor solution (25 µl/well) were added to each well. To perform positive and negative control, 5% aqueous DMSO (25 µl/well) were used instead of inhibitor solution. Addition of ATP solution (25 µl/well) started the reaction, whereas 40 mM MnCl2 solution (25 µl/well) was added to the negative control instead of ATP. After incubation under mild shaking conditions for 30 min at rt the plate was washed with PBS-T (3 x 2 min) and subsequently incubated with antibody solution (anti-Phosphotyrosine-antibody (POD-coupled) diluted 1:10.000 in PBS-T + 0,2% (m/v) BSA)(100 µl/well) for 1 h again while shaking. In the end the plate was washed with PBS-T (3x5 min) and provided with the chemiluminescence substrate (50 µl/well). After 3 min the occurring luminescence was measured using a luminometer. […] For determination of IC50 values, the relative luminescence units per second (RLU/s) were blotted against the inhibitor concentrations. In doing so each concentration measurement was done triplicate and at least 5 different inhibitor concentrations were used to determine IC50 value.
This assay is based on the ELISA-principle using kinases from Biomol (N-terminally fused to GST), POD-coupled antibody from Calbiochem (PY20) and BM chemiluminescence ELISA substrate from Roche. […]
For determination of IC50 values, the relative luminescence units per second (RLU/s) were blotted against the inhibitor concentrations. […]
Background: ELISA stands for enzyme-linked immunosorbent assay.

Test [1] has as its system histone H3 phosphorylation on Ser 10. Kind of test: Western Blot analysis of histone H3 phosphorylation in mitotic cells. The test is classed as cell-based, human. To be noted: mitotic HeLa cells synchronized with nocodazole, treated 20 h, any of the concentrations tested. The method, then:
For Western Blot analysis of HH3 phosphorylation levels in mitosis HeLa cells were arrested with 2 mM thymidine for 18 h, released into fresh medium for 6 h, and blocked with 2 µM nocodazole for 16 h. DMSO or the different compounds were added 1 h after thymidine release. Mitotic cells were shaken off and lysed in 50 mM Tris pH 6,8- 2% SDS. Samples were sonicated and boiled. 30 µg protein extract (as determined by Bradford assay, Bio-Rad protein assay) was loaded on SDS-PAGE, transferred to a nitrocellulose membrane and blotted with anti-phospho HH3 (Upstate), anti-Aurora A and anti-tubulin antibodies (Sigma, DM1A).

T1 sequence (Q96GD4 whole entry): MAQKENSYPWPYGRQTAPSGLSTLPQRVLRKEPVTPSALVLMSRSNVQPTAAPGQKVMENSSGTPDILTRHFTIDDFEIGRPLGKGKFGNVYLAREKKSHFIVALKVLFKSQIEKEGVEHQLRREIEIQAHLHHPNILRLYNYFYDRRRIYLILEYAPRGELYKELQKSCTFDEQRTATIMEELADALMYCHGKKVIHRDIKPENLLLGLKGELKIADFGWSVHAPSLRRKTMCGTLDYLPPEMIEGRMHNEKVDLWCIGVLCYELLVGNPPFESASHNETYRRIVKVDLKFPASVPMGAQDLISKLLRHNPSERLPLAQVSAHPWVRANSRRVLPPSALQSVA

What is called IC50 is the point on the concentration scale where inhibition reaches its midpoint. A high value points to weaker potency. With `CC(C)Nc1nc(-c2ccco2)nc2ccc(C#CCO)cc12` [Compound (C), 3-(2-(Furan-2-yl)-4-(isoiproipylamino)quinazolin-6-yl)prop-2-yn-l-ol], the results for the IC50 against Aurora B and in the test with FGFR were 3380 µM and > 100 µM, respectively. In addition, the HH3-Ser10 phosphorylation entry in test [1] is on record as “no effect”.
On to `CC(C)Nc1nc(-c2ccco2)nc2ccc(/C=C/C(C)(C)O)cc12` [Compound (A), (E)-4-(2-(Furan-2-yl)-4-(isopropylamino)quinazolin-6-yl)-2-methylbut-3-en-2-ol], for which the figures for the IC50 against Aurora B and in the test with FGFR were 16.2 µM and > 100 µM, respectively. Besides, in test [1], the HH3-Ser10 phosphorylation entry is reported as “no effect”.

Source of the values: patent EP2241565A1, “Aurora kinase inhibitors compounds” (Universität Leipzig, priority 2009, dated 2010).
